These results are taken from patent publication US10799555B2, “PD-1 peptide inhibitors” (Leidos, Inc., priority 2016, dated 2020).

One may read the Kd as the equilibrium constant for the complex coming apart.

The test system of one assay is human PBMCs. It is filed as cell-based. The arrangement: key: “x” indicates no effect; “−” indicates a possible low effect; “+” indicates some effect; “++” indicates a definite effect.
For the next assay, the target named is human PD-1 (Homo sapiens, UniProt Q15116). The assay is described as follows: BIACORE assay, human PD-1. Format: binding. The note with it: for Rmax / KA / Kd: ligand human PD-1 10,000 RU, 25° C.; for KA / Kd: steady state equilibrium; for binding / affinity towards human PD-1 (in words): BIACORE. The protocol:
(§1) BIACORE® assays were carried out using a BIACORE® T-200 at 25° C. The assay and regeneration buffers contained 10 mM HEPES (pH 7.4), 150 mM NaCl, 3 mM EDTA, and 0.05% P20. The immobilization buffer was 10 mM sodium acetate, pH 5.0. The flow rate used for immobilizing the ligand was 5 μl/min. The flow rate for kinetics analysis was 30 μl/min.
[…] The un-occupied sites were blocked with 1M ethanol amine. Scouting was performed at a single analyte concentration of 25 μM to confirm yes/no binding. Flow cell 1 was kept blank and used for reference subtraction. Binding of analyte to the ligand was monitored in real time.
[…] Due to fast on rate and off rate, KD was determined by steady state equilibrium kinetics.
(§2) Chi square (χ2) analysis was carried out between the actual sensorgram and a sensorgram generated from the BIANALYSIS® software (black line) to determine the accuracy of the analysis. A χ2 value within 1-2 is considered significant (accurate) and below 1 is highly significant (highly accurate).
A general note: SPR reads the build-up and loss of mass on a sensor chip optically.

Assay [1] has as its target soluble recombinant human PD-1 receptor (Homo sapiens, UniProt Q15116). Description: Clonal phage ELISA of phage display library clones. It is filed as binding. The note with it: for Clonal Phase ELISA coated signal: after fifth round of panning; for Clonal Phase ELISA uncoated signal: uncoated (background). From the text:
The TriCo-20™ (TRICO-20™) and TriCo-16™ (TRICO-16™) Phage Display Peptide Libraries (Creative Biolabs, 45-1 Ramsey Road, Shirley, N.Y. 11967) were screened to identify binders of soluble recombinant human PD-1 receptor. After the fourth round of panning, obvious enrichment for specific binders was observed, and individual peptides were confirmed as weakly specific binders in a clonal phage ELISA. A fifth round of panning led to greater enrichment.
(In general: ELISA stands for enzyme-linked immunosorbent assay.)

The target in a further assay is T1, mouse PD-1 (Mus musculus, UniProt Q02242).
T1 sequence (Q02242 25-288): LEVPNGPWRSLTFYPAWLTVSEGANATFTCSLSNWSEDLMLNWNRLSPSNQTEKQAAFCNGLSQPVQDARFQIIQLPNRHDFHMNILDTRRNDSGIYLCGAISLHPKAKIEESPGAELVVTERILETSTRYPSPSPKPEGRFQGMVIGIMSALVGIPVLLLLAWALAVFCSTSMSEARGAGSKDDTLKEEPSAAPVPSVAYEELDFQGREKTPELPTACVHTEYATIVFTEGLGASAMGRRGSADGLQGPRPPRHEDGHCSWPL
The assay is described as follows: BIACORE assay, mouse PD-1. It is filed as binding. The note with it: for binding / affinity towards mouse PD-1 (in words): BIACORE; for Rmax / KA / Kd: ligand mouse PD-1 10,000 RU, 25° C.; for KA / Kd: steady state equilibrium. As to the method:
as §1
12,000 response units (RU) of human and 6000 RU of mouse PD-1 receptors were directly immobilized on flow cell 2 and flow cell 4 of the CMS chip by amine coupling method (EDC/NHS). The un-occupied sites were blocked with 1M ethanol amine. Scouting was performed at a single analyte concentration of 25 μM to confirm yes/no binding. Flow cell 1 was kept blank and used for reference subtraction. Binding of analyte to the ligand was monitored in real time.
Based on the scouting results, full kinetics were performed by immobilizing higher RU of the ligand to a new chip and analyte concentration at 25 μM, followed by serial dilution to 12.5, 6.25, 3.125, 1.562, 0.78 and 0 μM concentration or as indicated. Due to fast on rate and off rate, KD was determined by steady state equilibrium kinetics.
as §2

Residues, ends and D or L forms follow the SMILES beside them.

Chain of human PD-1 (Q15116 25-288): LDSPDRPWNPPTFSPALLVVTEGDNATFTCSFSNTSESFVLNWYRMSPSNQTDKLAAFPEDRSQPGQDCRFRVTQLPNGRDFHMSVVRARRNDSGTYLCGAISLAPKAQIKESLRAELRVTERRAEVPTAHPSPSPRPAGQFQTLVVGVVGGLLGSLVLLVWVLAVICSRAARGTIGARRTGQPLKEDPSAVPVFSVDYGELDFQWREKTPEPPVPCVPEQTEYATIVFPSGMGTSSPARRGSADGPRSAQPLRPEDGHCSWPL
Chain of soluble recombinant human PD-1 receptor (Q15116 25-170 limits assumed): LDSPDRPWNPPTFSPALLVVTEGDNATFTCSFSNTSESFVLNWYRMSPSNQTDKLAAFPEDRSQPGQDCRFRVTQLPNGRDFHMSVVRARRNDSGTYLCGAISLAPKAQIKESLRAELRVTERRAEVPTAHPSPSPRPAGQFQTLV

As to `CC[C@H](C)[C@H](NC(=O)[C@H](CCCCN)NC(=O)[C@@H]1CCCN1C(=O)[C@H](CCSC)NC(=O)[C@@H]1CCCN1C(=O)[C@@H](NC(=O)[C@@H](NC(=O)[C@H](CCCNC(=N)N)NC(=O)[C@@H](NC(=O)[C@@H](N)CCC(N)=O)[C@@H](C)O)[C@@H](C)O)C(C)C)C(=O)N[C@@H](Cc1c[nH]cn1)C(=O)N[C@@H](Cc1c[nH]cn1)C(=O)N1CCC[C@H]1C(=O)N1CCC[C@H]1C(=O)N[C@@H](Cc1c[nH]c2ccccc12)C(=O)N[C@@H](CCC(N)=O)C(=O)N[C@@H](CC(N)=O)C(=O)N[C@H](C(=O)N[C@H](C(=O)N1CCC[C@H]1C(=O)O)C(C)C)C(C)C` [QP20] (H-QTRTVPMPKIHHPPWQNVVP-OH; N-terminus and C-terminus assumed), in the assay with human PBMCs, the IFNγ production result is “x”, the IL-2 production result was “x”, the IL-4 production result is “−” and the IL-6 production entry is “x”. In the assay with human PBMCs, the IL-10 production entry is “x” and the TNFα production entry is “x”. On human PD-1, this molecule yielded an Rmax of 3.83 RU, a KA of 93600 M⁻¹ and a Kd of 10.7 µM. In addition, in assay [1], the “Clonal Phase ELISA coated signal” value turned out to be 0.851 and the “Clonal Phase ELISA uncoated signal” value came out at 0.446. Moreover, on mouse PD-1, the “binding / affinity towards mouse PD-1 (in words)” value is given as “highest affinity”, the Rmax came out at 13.4 RU, the KA was 18000 M⁻¹ and binding was characterised by a dissociation constant (Kd) of 55.4 µM.

In the assay with mouse PD-1, “Mouse PD-L1: mouse PD-L1 used as analyte on immobilized mouse PD-1 in BIACORE [reference compound]” showed an Rmax of 259 RU and a KA of 2.75e+06 M⁻¹.

As for `CC[C@H](C)[C@H](NC(=O)[C@H](Cc1c[nH]c2ccccc12)NC(=O)[C@H](CCC(=O)O)NC(=O)[C@H](Cc1c[nH]cn1)NC(=O)[C@H](CCC(=O)O)NC(=O)[C@H](Cc1c[nH]cn1)NC(=O)[C@@H]1CCCN1C(=O)[C@H](CCCNC(=N)N)NC(=O)[C@@H](NC(=O)[C@H](Cc1c[nH]cn1)NC(=O)[C@H](Cc1c[nH]cn1)NC(=O)[C@H](CC(N)=O)NC(=O)[C@H](Cc1c[nH]cn1)NC(=O)[C@H](Cc1ccccc1)NC(=O)[C@H](CO)NC(=O)[C@H](C)NC(=O)[C@@H]1CCCN1C(=O)[C@H](CC(C)C)NC(=O)[C@H](CC(N)=O)NC(=O)[C@@H](N)Cc1c[nH]c2ccccc12)[C@@H](C)CC)C(=O)N[C@@H](CCC(N)=O)C(=O)O` [WQ20] (H-WNLPASFHNHHIRPHEHEWIQ-OH; N-terminus and C-terminus assumed), in the assay with human PBMCs, the IFNγ production entry is “++”, the IL-2 production entry is “−”, the IL-4 production result was “++” and the IL-6 production entry is listed as “++”. Also, in the assay on human PBMCs, the IL-10 production entry was “x” and the TNFα production result is given as “++”. On human PD-1, this molecule had an Rmax of 84.7 RU, a KA of 3280 M⁻¹ and a Kd of 305 µM. In addition, in assay [1], the “Clonal Phase ELISA coated signal” value amounted to 0.275 and the “Clonal Phase ELISA uncoated signal” value turned out to be 0.115. At mouse PD-1, this molecule yielded an Rmax of 270 RU, a KA of 1310 M⁻¹ and a Kd of 761 µM.

As to `CSCC[C@H](NC(=O)[C@H](CCCCN)NC(=O)[C@H](Cc1ccccc1)NC(=O)[C@H](Cc1c[nH]cn1)NC(=O)[C@H](Cc1c[nH]cn1)NC(=O)[C@H](Cc1ccc(O)cc1)NC(=O)[C@H](CO)NC(=O)[C@@H](N)CO)C(=O)N1CCC[C@H]1C(=O)N[C@@H](CCC(=O)O)C(=O)N[C@@H](CC(C)C)C(=O)N[C@@H](Cc1c[nH]cn1)C(=O)N[C@@H](Cc1ccccc1)C(=O)NCC(=O)N[C@@H](CCCCN)C(=O)N[C@@H](CC(N)=O)C(=O)N[C@H](C(=O)N[C@@H](Cc1ccccc1)C(=O)N[C@@H](Cc1c[nH]cn1)C(=O)N[C@@H](CCC(N)=O)C(=O)O)[C@@H](C)O` [SQ20] (H-SSYHHFKMPELHFGKNTFHQ-OH; N-terminus and C-terminus assumed), in the assay with human PBMCs, the IFNγ production entry is “++”, the IL-2 production entry is “+”, the IL-4 production entry is given as “−” and the IL-6 production entry is given as “++”. In the assay on human PBMCs, the IL-10 production result was “+” and the TNFα production result is reported as “+”. At human PD-1, the “binding / affinity towards human PD-1 (in words)” value is reported as “highest affinity”, the Rmax is given as 4.05 RU, the KA came to 194000 M⁻¹ and the Kd is 5.16 µM. In addition, in assay [1], the “Clonal Phase ELISA coated signal” value is listed as 0.284 and the “Clonal Phase ELISA uncoated signal” value was determined as 0.159. On mouse PD-1, the “binding / affinity towards mouse PD-1 (in words)” value is on record as “highest affinity”, the Rmax came to 12.8 RU, the KA turned out to be 21400 M⁻¹ and binding was put at a Kd of 46.8 µM.

On to `CSCC[C@H](NC(=O)CNC(=O)[C@@H](NC(=O)[C@H](Cc1c[nH]c2ccccc12)NC(=O)[C@H](Cc1c[nH]cn1)NC(=O)[C@H](CO)NC(=O)[C@H](CCCNC(=N)N)NC(=O)[C@@H](NC(=O)[C@H](CCC(N)=O)NC(=O)[C@H](Cc1ccc(O)cc1)NC(=O)[C@@H](NC(=O)[C@H](CCC(N)=O)NC(=O)[C@H](Cc1c[nH]cn1)NC(=O)[C@H](Cc1c[nH]cn1)NC(=O)[C@@H](N)Cc1c[nH]cn1)C(C)C)C(C)C)[C@@H](C)O)C(=O)N[C@@H](Cc1c[nH]cn1)C(=O)N[C@@H](CO)C(=O)NCC(=O)N[C@@H](Cc1c[nH]cn1)C(=O)N[C@@H](CC(=O)O)C(=O)O` [HD20] (H-HHHQVYQVRSHWTGMHSGHD-OH; N-terminus and C-terminus assumed), for which, in the assay on human PBMCs, the IFNγ production result is recorded as “++”, the IL-2 production result is given as “−”, the IL-4 production entry is recorded as “x” and the IL-6 production entry is listed as “++”. Moreover, in the assay with human PBMCs, the IL-10 production entry is listed as “x” and the TNFα production result is listed as “++”. On human PD-1, the “binding / affinity towards human PD-1 (in words)” value was “highest affinity”, the Rmax amounted to 3.35 RU, the KA is 318000 M⁻¹ and the Kd worked out at 3.41 µM. In assay [1], the “Clonal Phase ELISA coated signal” value is given as 0.281 and the “Clonal Phase ELISA uncoated signal” value is on record as 0.109. Also, at mouse PD-1, the Rmax was determined as 76 RU; the KA is 4250 M⁻¹; the affinity, expressed as Kd, was 235 µM.
